Square brackets hold non-standard residues; d marks the D form. Peptide text beside a SMILES is read from it.
How the values were obtained:
LPS-induced lethality [1] = experiment: LPS-induced lethality, orally administered peptide (gavage); type: in vivo, adult female Balb/c mice; details: 0.6 mg LPS ip
Experimental: The LPS-induced lethality studies were performed based on information reported by Rivier et al., supra, 1989. Adult female Balb/c mice were provided food and water ad libitum. Mice were administered 150 μg or 300 μg EX-2, EX-3, EX-4 or EX-5 in 100 μl saline by gavage every 4 hr for 40 hr (total doses of 1.65 mg and 3.3 mg, respectively). Control mice received 100 μl saline, alone. Immediately following the first dose of cytokine restraining agent or saline, 0.6 mg LPS in 0.2 ml saline was administered by ip injection.

TNF-α [2] = experiment: LPS-induced TNF-α levels, orally administered peptide (gavage); type: in vivo, Balb/c female mice; details: 1 min before 0.1 mg LPS ip
Experimental: The ability of orally administered cytokine restraining agents to reduce LPS-induced TNF-α levels also was examined. Balb/c female mice (20 g) were administered 150 μg or 300 μg EX-2, EX-3, EX-4 or EX-5 in 100 μl saline by gavage. Control mice received 100 μl saline, alone. One minute later, 0.1 mg LPS was administered by ip injection. Samples were collected and TNF-α levels were determined as described in Example III, above.
The mean TNF-α levels in the mice from each group (n=9-20) was determined and the percent reduction in TNF-α levels was calculated.

TNF-α [3] = experiment: Reduction of LPS-induced TNF-α levels in mice (ip peptide), plasma ELISA; type: in vivo, Balb/c female mice; details: 1 min before 5 mg/kg LPS ip, vs control mice
Experimental: Balb/c female mice weighing approximately 20 g were placed into two groups, a control group and a treated group. Five mg/kg of LPS in 0.9% saline was administered by intraperitoneal (ip) injection into the control mice. Mice in the treated group were first injected ip with 30 μg EX-2 or 150 μg EX-3 in saline, then, one minute after EX-2 or EX-3 was administered, the mice received LPS as described for the control group.
Blood samples were collected from the orbital sinus of treated and control mice at various times up to four hours after LPS was administered. The plasma was separated by centrifugation at 3000×g for 5 min, then diluted with four volumes of 1× phosphate buffer saline (pH 7.4) containing 1% bovine serum albumin. A 100 μl sample of serum was assayed by ELISA for TNF-α (Genzyme; Cambridge Mass.).
The mean (+/-SEM) TNF-α level in six mice from each group was determined and the percent reduction in TNF levels was calculated.

LPS-induced lethality [4] = experiment: Lipopolysaccharide-induced lethality (ip peptide); type: in vivo, adult female Balb/c mice; details: 11 × 300 μg/mouse ip (3.3 mg total), every 4 hr; 0.6 mg LPS
Experimental: These experiments were performed based on information reported by Rivier et al., Endocrinology 125:2800-2805 (1989), which is incorporated herein by reference. Adult female Balb/c mice were provided food and water ad libitum. Mice were injected ip every four hours for 40 hr with 30 to 300 μg EX-2 or EX-3 in 0.2 ml saline (treated group) or with 0.2 ml saline, alone (control group) (10 mice per group). Immediately following the first injection, 0.6 mg LPS endotoxin in 0.2 ml saline was administered to each mouse. Following LPS injection, EX-2 or saline was administered to the treated mice or the control mice, respectively, every 4 hr for 36 hr.

[5] = test system: arachidonic acid-induced ear swelling; experiment: Arachidonic acid-induced ear swelling; type: in vivo, female Balb/c mice; details: 100 μg/mouse ip, 30 min prior to AA; 60 min after AA application
Experimental: Experiments were performed using female Balb/c mice weighing 18-23 grams. Saline or 100 μg EX-2 or EX-3 was administered ip, 30 min prior to topical application of arachidonic acid (AA). A 10 μl pipet was used to apply 10 μl AA solution (100 mg/ml ethanol; Calbiochem-Novabiochem; San Diego, Calif.) to the inner and outer surfaces of the right ear of each mouse. Ten μl ethanol, alone, was applied to the inner and outer surface of the left ear of each mouse. Ear thickness was measured with a hand-held spring loaded caliper immediately before and 60 min after AA application. Increase in ear thickness was calculated by subtracting the change observed in the control ear from the change observed in AA-treated ear. The value for each group (saline and control) is the average of the swelling observed in the individual mice in each group. The percent reduction of swelling is based on the swelling observed in the saline control group.

interleukin-6 (IL-6) = experiment: Reduction of LPS-induced interleukin-6 levels in mice, IL-6-specific ELISA; type: in vivo, Balb/c mice; details: 300 μg/mouse (Table I), LPS treated mice; vs control mice
Experimental: Balb/c mice were grouped and treated as described in Example III, above. Blood samples were obtained from the orbital sinus at various times up to six hours and serum was collected and diluted as described above. A 100 μl aliquot was assayed for IL-6 levels using an IL-6-specific ELISA by a modification of the method of Starnes et al., J. Immunol. 145:4185-4194 (1990), which is incorporated herein by reference.
The mean (+/-SEM) IL-6 level in six mice from each group was determined and the percent reduction in IL-6 was calculated.

[6] = test system: IL-1β-induced hyperalgesia; experiment: Interleukin-1β-induced hyperalgesia, paw pressure test; type: in vivo, adult male Sprague-Dawley rats; details: 1 μg ip, 20 min before intraplantar IL-1β; 2 hr after IL-1
Experimental: These experiments were performed using a modification of the methods described by Poole et al., Br. J. Pharmacol. 106:489-492 (1992); Follenfant et al., Br. J. Pharmacol. 98:41-43 (1989); and Randall and Sellito, Arch. Internatl. Pharmacodyn. 111:409-419 (1957), each of which is incorporated herein by reference. Adult male Sprague-Dawley rats (175-275 g) were tested for hyperalgesia by a paw pressure technique using variable pressure instrumentation (IITC Life Sciences; Woodland Hills, Calif.). Rats were acclimated to the housing environment and were handled for three days prior to beginning a training session. On the day before the hyperalgesia experiments was to begin, each rat was placed into a sock and two variable paw pressure tests were performed 15 min apart. […] Approximately 5-10% of the rats were non-responders and were eliminated from further experiments.
Animals that responded to the paw pressure were pretreated by ip injection of various concentrations of EX-2 in a volume of 1 ml/kg (treated) or saline, alone (control). After 20 min, 100 μl of IL-1β (1U/100 μl) was administered to rats via intraplantar injection. Two hr after IL-1 administration, rats were subjected to two additional paw pressure tests and the increase in mm Hg of pressure that could be applied to the EX-2-treated rats as compared to the control rats was determined.

[7] = test system: LPS-induced PMN infiltration in lungs; experiment: Adult respiratory distress syndrome: PMN count in broncho-alveolar lavage after intratracheal LPS; type: in vivo, male Harlan Sprague-Dawley rats; details: 100 μg/kg ip at 0, 2 and 4 hr; lavage at 6 hr after intratracheal LPS 5 mg/kg
Experimental: These experiments were performed using a modification of the methods described by Ulich et al., Am. J. Pathol. 141:61-68 (1992) and by Wheelden et al., Lab. Animals 26:29-37 (1992), each of which is incorporated herein by reference. Male Harlan Sprague-Dawley rats were anesthetized using a mixture of 70 mg/kg ketamine and 6 mg/kg rompun injected ip. A 2-3 cm incision was made in the neck of each anesthetized rat and its trachea was exposed by blunt dissection of the surrounding soft tissue. The rats were suspended on a near vertical slab and intratracheal injections were performed by inserting into the exposed trachea, at a point 1 cm posterior to the larynx, a 25G×1/2 inch needle attached to a 1 cc syringe.
Each rat received 0.5 ml/kg of saline or 0.5 ml/kg of 10 mg/ml (5 mg/kg) LPS endotoxin via slow intratracheal administration. Immediately following administration of the LPS endotoxin, rats were injected ip with 1 ml/kg of either saline (control) or saline containing various concentrations of EX-2 (treated). The rats were maintained in the elevated position for 1-2 min to facilitate distribution of the LPS and saline into the lung. The incisions were closed and the rats were allowed to recover. […]
The total polymorphonuclear leukocytes (PMN; neutrophils) in the broncho-alveolar lavage fluid were counted in the EX-2-treated rats and compared with the number in the control rats.

[8] = 3.3 mg total (300 μg by gavage every 4 hr for 40 hr)

Compound | increase in survival, oral (LPS-induced lethality [1]; [8]) [%] | percent reduction in TNF-α levels, oral (TNF-α [2]; 300 μg by gavage) [%] | Inhibition of LPS-induced Lethality (increase in survival) (LPS-induced lethality [4]) [%] | Reduction in arachidonic acid-induced Ear Swelling [5] [%] | also measured
CC(=O)N[C@@H](Cc1c[nH]cn1)C(=O)N[C@H](Cc1ccccc1)C(=O)N[C@@H](CCCNC(=N)N)C(=O)N[C@H](Cc1c[nH]c2ccccc12)C(=O)NCC(N)=O [EX-4, Ac-His-(D)Phe-Arg-(D)Trp-Gly-NH2] (Ac-H[dF]R[dW]G-NH2) | 63 | 44 |  |  | 
CC(=O)N[C@H](C(=O)N[C@@H](CCC(N)=O)C(=O)N[C@@H](Cc1c[nH]cn1)C(=O)N[C@H](Cc1ccccc1)C(=O)N[C@@H](CCCNC(=N)N)C(=O)N[C@H](Cc1c[nH]c2ccccc12)C(=O)NCC(N)=O)C1CCCCC1 [EX-3, Ac-(cyclohexyl)Gly-Gln-His-(D)Phe-Arg-(D)Trp-Gly-NH2] |  | 40 | 86 | 62 | Reduction in TNF levels (TNF-α [3]; 150 μg/mouse ip): 56%; percent reduction in TNF-α levels, oral (TNF-α [2]; 150 μg by gavage): 49%
CC(=O)N[C@@H](Cc1c[nH]cn1)C(=O)N[C@H](Cc1ccccc1)C(=O)N[C@@H](CCCNC(=N)N)C(=O)N[C@H](Cc1c[nH]c2ccccc12)C(N)=O [EX-5, Ac-His-(D)Phe-Arg-(D)Trp-NH2] | 44 |  |  |  | increase in survival, oral (LPS-induced lethality [1]; 1.65 mg total (150 μg by gavage every 4 hr for 40 hr)): 68%
CCCC[C@H](NC(C)=O)C(=O)N[C@@H](CCC(N)=O)C(=O)N[C@@H](Cc1c[nH]cn1)C(=O)N[C@H](Cc1ccccc1)C(=O)N[C@@H](CCCNC(=N)N)C(=O)N[C@H](Cc1c[nH]c2ccccc12)C(=O)NCC(N)=O [EX-2, Ac-Nle-Gln-His-(D)Phe-Arg-(D)Trp-Gly-NH2] |  |  | 83 | 72 | Reduction in TNF levels (TNF-α [3]; 30 μg/mouse ip): 50%; Reduction in IL-6 levels (interleukin-6 (IL-6)): 60%; Reduction in IL-1-induced Hyperalgesia (increase in tolerated paw pressure) [6]: 125%; Reduction in LPS-induced PMN Count [7]: 58%

Reference: patent publication US6245738A, “Cytokine restraining agents” (Trega Biosciences, Inc., priority 1994, dated 2001)
